Reference: PubChem BioAssay (NCI)
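A five-concentration, 48-hour dose response in 96-well plates underlies each endpoint, interpolated linearly between surrounding concentrations. TGI is the concentration that stops growth completely.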

How the values were obtained:
Test in all cases: NCI tumour cell line growth inhibition, 48 h
[1] = test system: KM20L2 colon
[2] = test system: LXFL 529 NSCLC
[3] = test system: M19-MEL melanoma
[4] = test system: XF 498 CNS
[5] = test system: DLD-1 colon
[6] = test system: DMS 114 small cell lung
[7] = test system: DMS 273 small cell lung
[8] = test system: HOP-18 NSCLC
[9] = test system: RXF-631 renal
[10] = test system: SNB-78 CNS
[11] = test system: MDA-N

Row | Compound | TGI [1] [µM] | TGI [2] [µM] | TGI [3] [µM] | TGI [4] [µM] | TGI [5] [µM] | TGI [6] [µM] | TGI [7] [µM] | TGI [8] [µM] | TGI [9] [µM] | TGI [10] [µM] | TGI [11] [µM]
1 | N#Cc1ccccc1NC(=O)/C(=N\N)C(C(=O)c1ccncc1)C1OC(=O)c2ccccc21 (stereo not given) | > 100 | > 100 | > 100 | > 100 |  |  |  |  |  |  | 
2 | O=C(Nc1ccc(Cl)cc1Cl)C1C(=O)N(c2ccc(Cl)cc2Cl)C(=O)/C1=N\Nc1ccc([N+](=O)[O-])cc1[N+](=O)[O-] (stereo not given) | > 100 | > 100 | > 100 |  | > 100 | 66.8 | > 100 | > 100 | > 100 | > 100 | 
3 | CC[C@]12CCCN3CCc4c(n(c5ccccc45)C(=O)C1)[C@@H]32 |  |  |  |  |  |  |  |  |  |  | 4.79
4 | CC(C)/C=C1\CCC(CN2CCCC2)C1=O (stereo not given) | 36 | 10.1 | > 60.4 | 31.5 | 10.4 | 34.5 |  | 17.3 |  | 51.2 | 
5 | COc1cccc(C2c3cc4c(cc3OC(C)(N3CCCC3)C2C)OCO4)c1OC (stereo not given) |  |  |  |  |  |  |  |  |  |  | 34.7
6 | O=[N+]([O-])c1ccc(S(=O)(=O)Cc2ccccc2)c([N+](=O)[O-])c1 |  |  |  |  |  |  |  |  |  |  | 4.09
7 | O=C(Nc1c(O)[nH]c(=S)[nH]c1=O)c1ccccc1F | > 100 | > 100 | > 100 |  | > 100 | > 100 |  | > 100 | > 100 | > 100 | 
8 | CC(C)(C)NNC(=O)/C(=C/c1ccc([N+](=O)[O-])cc1)NC(=O)c1ccccc1 | > 100 | > 100 | > 100 | > 100 | > 100 | 35.9 | 80 | > 100 |  | > 100 | 
9 | COc1cc(C2c3[nH]c4ccccc4c3C[C@H]3COC(=O)N23)cc(OC)c1OC (stereo not given in full) |  |  |  |  |  |  |  |  |  |  | 0.0492
10 | CC(NS(=O)(=O)c1ccc([N+](=O)[O-])cc1)C(=O)O (stereo not given) | > 100 | > 100 |  | > 100 | > 100 |  | > 100 | > 100 | > 100 |  | 
11 | O=C1[C@@H]2C(c3ccccc3Br)=NO[C@@H]2C(=O)N1c1ccc(Cc2ccc(N3C(=O)[C@H]4C(c5ccccc5Br)=NO[C@H]4C3=O)cc2)cc1 | > 100 | > 100 | > 100 | > 100 | > 100 | > 100 | > 100 | > 100 | > 100 | > 100 | 
12 | Cc1c(N2CCCC2)cc2c(c1NC(=O)c1ccccc1Cl)C(C)(C)CC2(C)C |  |  |  |  |  |  |  |  |  |  | 28.5
13 | CC1CC[C@]2(C(=O)O)CCC3(COC(=O)/C=C\c4ccc(O)cc4)C(=CCC4[C@@]5(C)CC[C@H](O)C(C)(C)C5CC[C@]43C)[C@@H]2[C@H]1C (stereo not given in full) | 33.6 | > 100 | 50.8 |  | 30.8 | > 100 | 50.3 | 69.8 | 77.9 | > 100 | 
14 | CC1CC(C2=CC=CCS2)=Nc2ccccc2S1 (stereo not given) | > 100 | > 100 | > 100 | > 100 | > 100 |  | > 100 | > 100 | > 100 | > 100 | 
15 | CCc1nc(N)nc(N)c1-c1ccc(NCCN)c([N+](=O)[O-])c1 |  |  |  |  |  |  |  |  |  |  | > 100
16 | Cc1ccc(NC(=O)c2cc3cc(N=Nc4ccc(Br)cc4)ccc3oc2=O)cc1 |  |  |  | > 100 | > 100 | > 100 | > 100 |  |  | > 100 | 
17 | CN1N=CSC12C(=O)N(c1ccc(Cl)cc1)C(=O)N2c1ccc(Cl)cc1 (stereo not given) | > 100 | > 100 | > 100 |  | > 100 |  |  | 69.7 |  | > 100 | 
18 | COc1cccc2c1C(=O)C=CC2=O | 30.6 | 6.37 | 16.1 | 5.25 | 39 | 10.3 | 30.8 | 23.6 |  | 9.3 | 
19 | COC(=O)C1=C(c2ccc(OC)c(OC)c2)OC(c2ccc(OC)c(OC)c2)C1 (stereo not given) | > 100 | 62.1 | > 100 | 65.2 | > 100 | 77.5 | > 100 | > 100 |  | > 100 | 
20 | C/C(CN1C(=O)c2ccccc2C1=O)=N\NS(=O)(=O)c1ccc(C)cc1 | > 100 | > 100 | > 100 |  | > 100 |  | > 100 | > 100 |  | > 100 | 
21 | NC1=NC(=O)/C(=C/c2ccccc2[N+](=O)[O-])C(N)=N1 | > 100 | > 100 | > 100 | > 100 | > 100 | > 100 | > 100 | > 100 | > 100 | > 100 | 
